# Values joined by “and” are separate entries in the source; they are usually repeats but may differ in a detail not shown here. Equal values may be shown once.
# What was measured:
# [1] = system: estrogen receptor (ER); settings: prior art, cited from earlier work
# [2] = system: antiestrogen-binding sites (AEBS); test: Competitive displacement of [3H]tamoxifen from AEBS in EL4 whole cells; settings: 5 nM [3H]tamoxifen, competitor 50 nM-1000 nM, tamoxifen = 100, mean ± SEM of two experiments
# Procedure: ^a Determined by competitive ligand binding assays using EL4 whole
# cells as the source of AEBS. Cells were incubated with 5 nM [^3
# unlabelled competing ligand (50 nM-1000 nM). The binding reaction was
# where RBA50 is the concentration required to reduce bound [^3
# competiting ligand). The data are the mean ± SEM of two experiments.
# [3] = system: human breast carcinoma; settings: clinical trials; prior art; cited from earlier work
# [4] = system: MCF7 cells; test: [3H]Thymidine incorporation (antiproliferative activity) by MCF7 cells; type: cell-based; settings: Homo sapiens, 48 hours, mean ± SEM of two experiments, read-out: IC50 MCF7 (inhibition of [3H]thymidine incorporation)
# Procedure: (§1) After 48 hours, each well was pulsed with [^3 H]thymidine (New England Nuclear)(74 KBq/well, 0.02 ml/well) for 60 minutes. Macromolecular incorporation of [^3 H]thymidine was quantitated by harvesting cells on a Brandel harvester fitted with scintillant-coated glass microfibre filters (Ready Filters, Beckman).
# (§2) [^3 H]Thymidine incorporation by MCF7 and RTx6 cells was determined by the same technique with the following modifications: (i) cells were plated at 4,500 cells/well (0.18 ml/well); (ii) compounds and [^3 H]thymidine (37 KBq/well, 0.02 ml/well) were added 24 hours after plating; (iii) cells were trypsinized (0.05 ml of 0.05%/0.53 mM EDTA/well) prior to harvesting.
# [5] = system: EL4 cells; test: [3H]Thymidine incorporation (antiproliferative activity) by EL4 cells; type: cell-based; settings: Mus musculus, 48 hours, mean ± SEM of two experiments, read-out: IC50 EL4 (inhibition of [3H]thymidine incorporation)
# Procedure: as §1, §2
# [6] = biological target: T1, estrogen receptor (ER) (Homo sapiens, UniProt P03372); test: Competitive displacement of [3H]estradiol from ER in MCF7 whole cells; type: binding; settings: 5 nM [3H]estradiol, hundredfold excess of test compound, mean ± SEM of two experiments, read-out: Bound [3H]estradiol (% of control)
# T1 construct: ER present in an established human breast carcinoma-derivedcell line, MCF7; endogenous in cells; host or cells: MCF7 whole cells
# T1 sequence (P03372 1-595): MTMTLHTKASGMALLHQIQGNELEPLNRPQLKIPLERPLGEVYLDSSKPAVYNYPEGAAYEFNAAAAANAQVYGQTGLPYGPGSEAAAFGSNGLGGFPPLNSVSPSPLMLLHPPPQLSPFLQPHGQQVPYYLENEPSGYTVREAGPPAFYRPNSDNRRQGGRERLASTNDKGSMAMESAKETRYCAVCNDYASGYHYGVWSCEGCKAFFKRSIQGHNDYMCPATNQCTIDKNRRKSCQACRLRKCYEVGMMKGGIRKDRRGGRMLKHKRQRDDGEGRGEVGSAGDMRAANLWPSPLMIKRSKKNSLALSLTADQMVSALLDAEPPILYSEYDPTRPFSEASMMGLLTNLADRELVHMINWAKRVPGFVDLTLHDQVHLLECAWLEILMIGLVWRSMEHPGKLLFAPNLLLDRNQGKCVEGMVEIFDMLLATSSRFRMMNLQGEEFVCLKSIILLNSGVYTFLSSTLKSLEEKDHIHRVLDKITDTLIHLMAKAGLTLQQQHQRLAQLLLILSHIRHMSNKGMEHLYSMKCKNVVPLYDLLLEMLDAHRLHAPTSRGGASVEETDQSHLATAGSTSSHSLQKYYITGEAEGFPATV
# Procedure: ^a Determined by competitive ligand binding assays using MCF7 whole
# cells as the receptor source. Cells were incubated with 5 nM [^3
# H]estradiol in the absence or presence of a hundredfold excess of DES or
# each test compound. The binding reaction was performed and bound [^3
# H]estradiol quantitated as described in the experimental section.
# ^b Bound [^3 H]estradiol in the absence of unlabelled competing
# ligand was set at 100%. The data are the mean ± SEM of two experiments
# [7] = system: cholesterol biosynthesis by EL4 cells; test: De novo cholesterol biosynthesis from [3H]acetate by EL4 cells; type: cell-based; settings: for % total radioactivity incorporated as cholesterol, experiment I / % total radioactivity incorporated as cholesterol, experiment II: single determinations of triplicate; for % total radioactivity incorporated as cholesterol, Mean: two experiments in triplicate
# Procedure: (§3) De novo synthesis of cholesterol by EL4 cells from [^3 H]acetic acid, sodium salt (Amersham) (103 GBq/mmol) was quantitated using [4-^14 C]cholesterol (Amersham) (2.04 GBq/mmol) as internal standard by the method of Ho et al., J.Exp.Med.(1977) 145:1531-1549). Each determination was performed in triplicate, each consisting of 0.8 ml of a cell suspension (2×10^7 EL4 cells/ml) incubated with [^3 H]acetate (0.25 mM) and the test compound (0.1 ml, 10^-6 M-10^-4 M) for 5 or 48 hours at 37° C.
# ^a EL4 cells (20 × 10^6 cells/ml in well) were incubated
# with 0.25 mM [^3 H]acetate in the absence or presence of 2 (10^-6
# ^b EL4 cells (20 × 10^6 cells/ml in well) were incubated
# with 0.25 mM [^3 H] acetate in the absence or presence of 2 (10^-
# with 0.25 mM [^3 H]acetate in the absence or presence of 4 (10^-4
# [8] = system: EL4 cells; test: Cell viability of EL4 cells by trypan blue exclusion; type: cell-based; settings: compound 2, 5 hours
# Procedure: (§4) Cell counts were performed manually using a Neubauer hemocytometer. Cell viability was assessed by trypan blue exclusion. The table below (Table HI) is a summary
# as §3
# (§5) ^e Cell viability was estimated by trypan blue exclusion.
# (§6) ^d Cell viability was estimated by trypan blue exclusion.
# [9] = as above; type: cell-based; settings: mouse, el4 cells, trypan blue exclusion
# Procedure: as §4, §3, §5, §6
# [10] = prior art; cited from earlier work
# [11] = compound 2, concentration 10^-M [sic], 48 hours
smiles,measurement,setting,value
"CC/C(=C(\c1ccccc1)c1ccc(OCCN(C)C)cc1)c1ccccc1 [1a (Tamoxifen), 1-[4-(2-dimethylaminoethoxy)phenyl]-1,2-diphenylbut1-(Z)-ene]",antagonist/agonist character (in words),[1],partial antagonists/agonists
same,RBA,[2],100
same,adverse side effects (in words),[3],low incidence of adverse side effects
same,clinical efficacy as antiestrogen (in words),[3],established its efficacy
COc1ccc2c(-c3ccc(OCCN(C)C)cc3)c(Cc3ccc(Cl)cc3)oc2c1 [Compound 1],IC50,[4],5025 ± 25 nM
same,IC50,[5],950 ± 50 nM
same,remaining activity at 0.5 µM,[6],98 ± 1%
same,RBA,[2],391 ± 195
"COc1ccc2c(-c3ccc(OCCN4CCCC4)cc3)c(Cc3ccc(Cl)cc3)oc2c1 [Compound 2, 2-(p-Chlorobenzyl)-3-[p-(2-pyrrolidinoethoxy)phenyl]-6-methoxybenzo[b]furan]",IC50,[4],2300 ± 100 nM
same,IC50,[5],475 ± 225 nM
same,RBA,[2],268 ± 92
same,inhibition of cholesterol biosynthesis (in words),[7]; as early as 5 hours after treatment,significant inhibition of cholesterol biosynthesis
same,% inhibition of cholesterol synthesis,"[7]; compound 2, 10^-6 M, 5 hours, p < 0.01, Student's t test",48%
same,"% total radioactivity incorporated as cholesterol, experiment I","[7]; compound 2, 10^-6 M, 5 hours",0.13% and 0.10% and 0.12%
same,"% total radioactivity incorporated as cholesterol, experiment II","[7]; compound 2, 10^-6 M, 5 hours",0.11% and 0.12% and 0.14%
same,"% total radioactivity incorporated as cholesterol, Mean","[7]; compound 2, 10^-6 M, 5 hours, control 0.23 ± 0.02",0.12 ± 0.01%
same,% inhibition of cholesterol synthesis,"[7]; compound 2, concentration 10^-M [sic], 48 hours, p < 0.01, Student's t test",47%
same,"% total radioactivity incorporated as cholesterol, experiment I",[7]; [11],0.16% and 0.15% and 0.24%
same,"% total radioactivity incorporated as cholesterol, experiment II",[7]; [11],0.14% and 0.17%
same,"% total radioactivity incorporated as cholesterol, Mean","[7]; compound 2, concentration 10^-M [sic], 48 hours, control 0.32 ± 0.02",0.17 ± 0.02%
same,cell viability (in words),[8],not associated with loss of cell viability
same,"viability at 5 h, 1 µM","[9]; compound 2, 10^-6 M, 5 hours, control 96",91%
same,viability at 48 h,"[9]; compound 2, concentration 10^-M [sic], 48 hours, control 92",87%
"COc1ccc2c(-c3ccc(OCCN4CCCCC4)cc3)c(Cc3ccc(Cl)cc3)oc2c1 [Compound 3, 2-(p-Chlorobenzyl)-3-[p-(2-piperidinoethoxy)phenyl]-6-methoxybenzo[b]furan]",IC50,[4],2050 ± 50 nM
same,IC50,[5],300 ± 150 nM
same,remaining activity at 0.5 µM,[6],93.5 ± 0.5%
same,RBA,[2],605 ± 371
COc1ccc2c(-c3ccc(OCCN4CCOCC4)cc3)c(Cc3ccc(Cl)cc3)oc2c1 [Compound 4],IC50,[4],6500 ± 500 nM
same,IC50,[5],335 ± 145 nM
same,remaining activity at 0.5 µM,[6],104 ± 2.5%
same,RBA,[2],1828 ± 446
same,% inhibition of cholesterol synthesis,"[7]; compound 4, 10^-4 M, 5 hours, p < 0.05, Student's t test",56%
same,"% total radioactivity incorporated as cholesterol, experiment I","[7]; compound 4, 10^-4 M, 5 hours",0.19% and 0.09% and 0.05%
same,"% total radioactivity incorporated as cholesterol, experiment II","[7]; compound 4, 10^-4 M, 5 hours",0.11% and 0.12%
same,"% total radioactivity incorporated as cholesterol, Mean","[7]; compound 4, 10^-4 M, 5 hours, control 0.25 ± 0.02",0.11 ± 0.03%
same,incorporation of [3H]acetate into cholesterol (in words),[7]; compound 4 at higher concentration (Table V),decreased incorporation of [^3 H]acetate into cholesterol
same,"viability at 5 h, 100 µM","[9]; compound 4, 10^-4 M, 5 hours, control 96",79%
O=C(c1ccc(OCCN2CCCC2)cc1)c1c(-c2ccc(O)cc2)sc2cc(O)ccc12 [LY117018],antagonist/agonist character (in words),[1],partial antagonists/agonists (like tamoxifen)
same,duration of action in vivo (in words),[10],shorter duration of action in vivo
COc1ccc(C2=C(C(=O)c3ccc(OCCN4CCCC4)cc3)c3ccccc3CC2)cc1 [Trioxifene],estrogenic activity (in words),[1]; compared with tamoxifen,possesses greater estrogenic activity than tamoxifen
same,clinical efficacy as antiestrogen (in words),[3],an effective antiestrogen in clinical trials

# From patent publication US5354861A, “2-(benzyl)-3-arylbenzofurans as antitumour and hypocholesterolemic agents” (National University of Singapore, priority 1992, dated 1994)
